As a reminder, the IC50 is the concentration needed to halve the response being measured.

This passage reports IC50 results from patent US12509444B2, “Compounds and methods for CD73 modulation and indications therefor” (Plexxikon Inc., priority 2019, dated 2025).

Each structure is given as a SMILES string.

The target in experiment [1] is T1, Human CD73 (amino acid residues 27-549) (Homo sapiens, UniProt P21589).
T1 construct: Human CD73 (amino acid residues 27-549); His tag (N); made in house; host or cells: E. coli
T1 sequence (P21589 27-549): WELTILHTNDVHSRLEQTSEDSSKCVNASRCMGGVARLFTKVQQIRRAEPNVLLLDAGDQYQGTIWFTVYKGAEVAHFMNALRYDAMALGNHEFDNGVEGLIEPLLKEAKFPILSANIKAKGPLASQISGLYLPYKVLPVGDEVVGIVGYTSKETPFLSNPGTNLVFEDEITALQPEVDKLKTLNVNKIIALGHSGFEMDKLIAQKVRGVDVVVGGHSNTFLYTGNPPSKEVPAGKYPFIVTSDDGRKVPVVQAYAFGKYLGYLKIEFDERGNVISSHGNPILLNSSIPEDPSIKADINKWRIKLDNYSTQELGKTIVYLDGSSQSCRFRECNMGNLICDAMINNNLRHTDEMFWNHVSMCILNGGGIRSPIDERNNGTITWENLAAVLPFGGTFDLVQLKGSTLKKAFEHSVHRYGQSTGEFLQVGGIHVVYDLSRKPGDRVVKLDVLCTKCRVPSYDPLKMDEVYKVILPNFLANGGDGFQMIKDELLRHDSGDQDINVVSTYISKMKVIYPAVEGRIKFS
As to the kind of experiment: CD73 enzymatic assay (luciferase-based indirect assay, CellTiter-Glo). It is filed as biochemical. Conditions: 0.4 nM CD73, 150 μM AMP, 1 hour at room temperature. In short, it runs like this:
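Residual AMP inhibits luciferase, so luminescence reports CD73 turnover; read with CellTiter-Glo 2.0 plus 1 μM final ATP, 30 min. Reaction used 0.4 nM N-His CD73 (27-549, E. coli), 150 μM AMP, HEPES pH 7.4 with Tween 20, 1 h at room temperature. IC50 fitted by nonlinear regression.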
For orientation: In ATP-based viability assays light output follows the ATP content of the culture.

Experiment [2] has as its target T2, human CD73 (Homo sapiens, UniProt P21589).
T2 construct: expressed in transfected cells
T2 sequence (P21589 27-549): T1 sequence (P21589 27-549)
As to the kind of experiment: Inhibitor activity against CD73 in cell based assay (CD73 expressing CHO-K1 cells). Particulars: CHO-K1 cells expressing human CD73, 150 μM AMP, 4 hours of incubation; read-out: CHO-K1 CELL VARIANT: CD73 IC50. In short, it runs like this:
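Residual supernatant AMP was quantified via CellTiter-Glo luminescence (1 μM ATP added, 30 min, room temperature) after a 4 h exposure of human CD73-expressing CHO-K1 cells to 150 μM AMP plus compound, top final 10 μM, 8 points. IC50 came from nonlinear regression of percent inhibition.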

Consider `CC1(C)CCC(NC(=O)O[C@@H]2CCN(c3cn[nH]c(=O)c3Cl)C2)C1` (stereo partly drawn) [P-0387, (R)-1-(5-chloro-6-oxo-1,6-dihydropyridazin-4-yl)pyrrolidin-3-yl (3,3-dimethylcyclopentyl)carbamate], for which the IC50 in experiment [1] and in experiment [2] was 0.001 to 10 µM each time.

For the compound `O=C(NC1CCN(C(=O)Nc2ccccc2C(F)(F)F)CC1)O[C@@H]1CCN(c2cn[nH]c(=O)c2Cl)C1` [P-0388, (R)-1-(5-chloro-6-oxo-1,6-dihydropyridazin-4-yl)pyrrolidin-3-yl (1-((2-(trifluoromethyl)phenyl)carbamoyl)piperidin-4-yl) carbamate], the IC50 in experiment [1] and in experiment [2] was 0.001 to 10 µM throughout.

`O=C(NC1CCN(C(=O)Nc2ccc(C(F)(F)F)cc2)CC1)O[C@@H]1CCN(c2cn[nH]c(=O)c2Cl)C1` [P-0389, (R)-1-(5-chloro-6-oxo-1,6-dihydropyridazin-4-yl)pyrrolidin-3-yl (1-((4-(trifluoromethyl)phenyl)carbamoyl)piperidin-4-yl) carbamate]: the IC50 in experiment [1] and in experiment [2] was 0.001 to 10 µM throughout.

As for `O=C(NC1CCN(C(=O)Nc2ccccc2F)CC1)O[C@@H]1CCN(c2cn[nH]c(=O)c2Cl)C1` [P-0390, (R)-1-(5-chloro-6-oxo-1,6-dihydropyridazin-4-yl)pyrrolidin-3-yl (1-((2-fluorophenyl)carbamoyl)piperidin-4-yl)carbamate], the concentration for half-maximal inhibition (IC50) in experiment [1] and in experiment [2] was 0.001 to 10 µM in each case.

On to `O=C(NC1CCN(C(=O)Nc2cccc(F)c2)CC1)O[C@@H]1CCN(c2cn[nH]c(=O)c2Cl)C1` [P-0391, (R)-1-(5-chloro-6-oxo-1,6-dihydropyridazin-4-yl)pyrrolidin-3-yl (1-((3-fluorophenyl)carbamoyl)piperidin-4-yl)carbamate], for which the IC50 in experiment [1] and in experiment [2] was 0.001 to 10 µM in each case.

As to `O=C(NC1CCCC1)O[C@@H]1CCN(c2cnn(CCO)c(=O)c2Cl)C1` [P-0392, (R)-1-(5-chloro-1-(2-hydroxyethyl)-6-oxo-1,6-dihydropyridazin-4-yl)pyrrolidin-3-yl cyclopentylcarbamate], the IC50 in experiment [1] and in experiment [2] was 0.001 to 10 µM throughout.

Turning to `O=C(N[C@H]1CC[C@H](NS(=O)(=O)c2cnn(C3CCCC3)c2)CC1)O[C@@H]1CCN(c2cn[nH]c(=O)c2Cl)C1` [P-0393, (R)-1-(5-chloro-6-oxo-1,6-dihydropyridazin-4-yl)pyrrolidin-3-yl ((1r,4R)-4-((1-cyclopentyl-1H-pyrazole)-4-sulfonamido)cyclohexyl) carbamate], the IC50 in experiment [1] and in experiment [2] was 0.001 to 10 µM throughout.

With `CN([C@H]1CC[C@H](NC(=O)O[C@@H]2CCN(c3cn[nH]c(=O)c3Cl)C2)CC1)S(C)(=O)=O` [P-0394, (R)-1-(5-chloro-6-oxo-1,6-dihydropyridazin-4-yl)pyrrolidin-3-yl ((1r,4R)-4-(N-methylmethylsulfonamido)cyclohexyl)carbamate], the IC50 in experiment [1] and in experiment [2] was 0.001 to 10 µM in each case.

Consider `N#Cc1c(N2CC[C@@H](OC(=O)NC3CCCC3)C2)cn[nH]c1=O` [P-0395, (R)-1-(5-cyano-6-oxo-1,6-dihydropyridazin-4-yl)pyrrolidin-3-yl cyclopentylcarbamate], for which the half-inhibitory concentration (IC50) in experiment [1] and in experiment [2] was 0.001 to 10 µM each time.

As for `CCn1cc(S(=O)(=O)N[C@H]2CC[C@H](NC(=O)O[C@@H]3CCN(c4cn[nH]c(=O)c4Cl)C3)CC2)cn1` [P-0396, (R)-1-(5-chloro-6-oxo-1,6-dihydropyridazin-4-yl)pyrrolidin-3-yl ((1r,4R)-4-((1-ethyl-1H-pyrazole)-4-sulfonamido)cyclohexyl) carbamate], the IC50 in experiment [1] and in experiment [2] was 0.001 to 10 µM each time.

As to `O=C(NC1CCCC1)O[C@@H]1CCN(c2cnn(CC(O)CO)c(=O)c2Cl)C1` (stereo partly drawn) [P-0397, (3R)-1-(5-chloro-1-(2,3-dihydroxypropyl)-6-oxo-1,6-dihydropyridazin-4-yl)pyrrolidin-3-yl cyclopentylcarbamate], the IC50 in experiment [1] and in experiment [2] was 0.001 to 10 µM each time.

`O=C(NC1CC1)N[C@H]1CC[C@@H](NC(=O)O[C@@H]2CCN(c3cnn(CCO)c(=O)c3Cl)C2)CC1` [P-0398, (R)-1-(5-chloro-1-(2-hydroxyethyl)-6-oxo-1,6-dihydropyridazin-4-yl)pyrrolidin-3-yl ((1s,4S)-4-(3-cyclopropylureido)cyclohexyl) carbamate]: the IC50 in experiment [1] and in experiment [2] was 0.001 to 10 µM in each case.

Take `C[C@H](O)C(=O)N1CCC(NC(=O)O[C@@H]2CCN(c3cn[nH]c(=O)c3Cl)C2)CC1` [P-0399, (R)-1-(5-chloro-6-oxo-1,6-dihydropyridazin-4-yl)pyrrolidin-3-yl (1-((S)-2-hydroxypropanoyl)piperidin-4-yl)carbamate]: the IC50 in experiment [1] and in experiment [2] was 0.001 to 10 µM each time.

As to `C[C@@H](O)C(=O)N1CCC(NC(=O)O[C@@H]2CCN(c3cn[nH]c(=O)c3Cl)C2)CC1` [P-0400, (R)-1-(5-chloro-6-oxo-1,6-dihydropyridazin-4-yl)pyrrolidin-3-yl (1-((R)-2-hydroxypropanoyl)piperidin-4-yl)carbamate], the IC50 in experiment [1] and in experiment [2] was 0.001 to 10 µM in each case.

Regarding `O=C(NC1CCN(C(=O)C2CCCO2)CC1)O[C@@H]1CCN(c2cn[nH]c(=O)c2Cl)C1` (stereo partly drawn) [P-0401, (R)-1-(5-chloro-6-oxo-1,6-dihydropyridazin-4-yl)pyrrolidin-3-yl (1-(tetrahydrofuran-2-carbonyl)piperidin-4-yl)carbamate], the IC50 in experiment [1] and in experiment [2] was 0.001 to 10 µM in each case.

Take `O=C(NC1CCN(C(=O)c2ccccc2F)CC1)O[C@@H]1CCN(c2cn[nH]c(=O)c2Cl)C1` [P-0402, (R)-1-(5-chloro-6-oxo-1,6-dihydropyridazin-4-yl)pyrrolidin-3-yl (1-(2-fluorobenzoyl)piperidin-4-yl)carbamate]: the IC50 in experiment [1] and in experiment [2] was 0.001 to 10 µM each time.

For `O=C(NC1CCN(C(=O)c2ccccc2C(F)(F)F)CC1)O[C@@H]1CCN(c2cn[nH]c(=O)c2Cl)C1` [P-0403, (R)-1-(5-chloro-6-oxo-1,6-dihydropyridazin-4-yl)pyrrolidin-3-yl (1-(2-(trifluoromethyl)benzoyl)piperidin-4-yl)carbamate], the IC50 in experiment [1] and in experiment [2] was 0.001 to 10 µM each time.

Turning to `O=C(NC1CCN(C(=O)c2ccc(F)cc2)CC1)O[C@@H]1CCN(c2cn[nH]c(=O)c2Cl)C1` [P-0404, (R)-1-(5-chloro-6-oxo-1,6-dihydropyridazin-4-yl)pyrrolidin-3-yl (1-(4-fluorobenzoyl)piperidin-4-yl)carbamate], the IC50 in experiment [1] and in experiment [2] was 0.001 to 10 µM throughout.

Regarding `CC1(NC(=O)O[C@@H]2CCN(c3cn[nH]c(=O)c3Cl)C2)CCCC1` [P-0405, (R)-1-(5-chloro-6-oxo-1,6-dihydropyridazin-4-yl)pyrrolidin-3-yl (1-methylcyclopentyl)carbamate], the 50% inhibitory concentration (IC50) in experiment [1] and in experiment [2] was 0.001 to 10 µM each time.

Turning to `O=C(NC1(C2CCCC2)CC1)O[C@@H]1CCN(c2cn[nH]c(=O)c2Cl)C1` [P-0406, (R)-1-(5-chloro-6-oxo-1,6-dihydropyridazin-4-yl)pyrrolidin-3-yl (1-cyclopentylcyclopropyl) carbamate], the IC50 in experiment [1] and in experiment [2] was 0.001 to 10 µM each time.
